Common to all, as to assay: Growth inhibitory activity of compounds on BaF3 cell lines stably transfected with kinase (MTS, 48 h)
What all share (assay type): cell-based

The target in assay [1] is T1, various mutants of kinase EGFR (BaF3 cell lines stably transfected with kinase) (Homo sapiens, UniProt P00533, L858R).
T1 construct: expressed in transfected cells; host or cells: BaF3
The note with it: BaF3 cells stably transfected with EGFR L858R, read-out: IC50, growth inhibition, L858R. The method in brief:
(§1)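 BaF3 cells stably transfected with EGFR mutants were exposed for 48 h at 37°C to 8 compound concentrations (top 10 µM, 1/3 dilutions, 0.1% DMSO). Growth was read by MTS at 490 nm after 1-4 h, in duplicate; IC50 was derived from inhibition rates versus DMSO control.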

The target in assay [2] is T2, various mutants of kinase EGFR (BaF3 cell lines stably transfected with kinase) (Homo sapiens, UniProt P00533, T790M/C797S, form not given).
T2 construct: other: BaF3 cells stably transfected with EGFR Δ19Del/T790M/C797S; MTS, 48; other: BaF3 cell line stably transfected with EGFR Δ19Del/T790M/C7
The note with it: BaF3 cells stably transfected with EGFR Δ19Del/T790M/C797S, read-out: IC50, growth inhibition, Δ19Del/T790M/C797S. The method, boiled down: as §1

Assay [3] addresses T3, various mutants of kinase EGFR (BaF3 cell lines stably transfected with kinase) (Homo sapiens, UniProt P00533, T790M, form not given).
T3 construct: other: BaF3 cells stably transfected with EGFR Δ19Del/T790M; MTS, 48 h; other: BaF3 cell line stably transfected with EGFR Δ19Del/T790M; MTS, 48
The note with it: BaF3 cells stably transfected with EGFR Δ19Del/T790M, read-out: IC50, growth inhibition, Δ19Del/T790M. The method in brief:
as §1

For assay [4], the target named is T4, various mutants of kinase EGFR (BaF3 cell lines stably transfected with kinase) (Homo sapiens, UniProt P00533).
T4 construct: other: BaF3 cells stably transfected with EGFR Δ19Del; MTS, 48 h; other: BaF3 cell line stably transfected with EGFR Δ19Del
The note with it: BaF3 cells stably transfected with EGFR Δ19Del, read-out: IC50, growth inhibition, Δ19Del. The method in brief: as §1

Assay [5] has as its target T5, various mutants of kinase EGFR (BaF3 cell lines stably transfected with kinase) (Homo sapiens, UniProt P00533, L858R/T790M).
T5 construct: expressed in transfected cells; host or cells: BaF3
The note with it: BaF3 cells stably transfected with EGFR L858R/T790M, read-out: IC50, growth inhibition, L858R/T790M. The method, boiled down:
as §1

The target in assay [6] is T6, various mutants of kinase EGFR (BaF3 cell lines stably transfected with kinase) (Homo sapiens, UniProt P00533, C797S/L858R/T790M).
T6 construct: expressed in transfected cells; host or cells: BaF3
The note with it: BaF3 cells stably transfected with EGFR L858R/T790M/C797S, read-out: IC50, growth inhibition, L858R/T790M/C797S. The method in brief: as §1

Some results are limits rather than exact numbers.

T5 sequence (P00533 25-1210 T790M/L858R): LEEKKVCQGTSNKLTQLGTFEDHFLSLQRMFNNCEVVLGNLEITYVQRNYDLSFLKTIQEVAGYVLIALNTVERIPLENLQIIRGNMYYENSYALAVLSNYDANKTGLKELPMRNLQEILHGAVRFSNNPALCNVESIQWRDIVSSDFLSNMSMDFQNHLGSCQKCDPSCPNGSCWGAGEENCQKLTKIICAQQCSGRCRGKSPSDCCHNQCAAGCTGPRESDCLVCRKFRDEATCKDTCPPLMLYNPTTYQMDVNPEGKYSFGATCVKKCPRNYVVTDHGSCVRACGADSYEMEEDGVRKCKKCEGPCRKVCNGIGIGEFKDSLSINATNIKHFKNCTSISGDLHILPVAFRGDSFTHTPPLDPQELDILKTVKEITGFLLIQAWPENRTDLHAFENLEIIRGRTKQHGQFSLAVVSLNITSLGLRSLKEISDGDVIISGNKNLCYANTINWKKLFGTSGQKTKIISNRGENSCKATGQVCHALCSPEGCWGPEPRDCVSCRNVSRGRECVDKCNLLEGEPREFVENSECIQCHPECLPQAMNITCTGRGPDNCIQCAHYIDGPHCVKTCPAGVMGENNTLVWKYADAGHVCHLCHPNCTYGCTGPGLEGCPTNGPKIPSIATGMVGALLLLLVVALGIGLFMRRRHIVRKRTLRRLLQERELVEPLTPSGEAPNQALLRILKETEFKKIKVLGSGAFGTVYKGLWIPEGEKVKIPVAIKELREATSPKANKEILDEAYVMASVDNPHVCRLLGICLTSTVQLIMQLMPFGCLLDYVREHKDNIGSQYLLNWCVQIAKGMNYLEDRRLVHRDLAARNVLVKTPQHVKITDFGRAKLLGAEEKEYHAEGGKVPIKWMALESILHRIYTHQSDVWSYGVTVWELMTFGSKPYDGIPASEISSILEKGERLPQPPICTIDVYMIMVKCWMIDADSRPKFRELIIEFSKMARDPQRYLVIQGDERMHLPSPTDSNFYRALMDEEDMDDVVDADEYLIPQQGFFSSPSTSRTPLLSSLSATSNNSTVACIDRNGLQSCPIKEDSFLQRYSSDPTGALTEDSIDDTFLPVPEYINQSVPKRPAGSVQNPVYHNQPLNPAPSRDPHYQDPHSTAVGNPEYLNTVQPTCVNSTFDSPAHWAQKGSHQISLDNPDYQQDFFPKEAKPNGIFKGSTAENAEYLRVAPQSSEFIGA
T3 sequence (P00533 with tags, fused parts or gaps DEL746-750/T790M, form open): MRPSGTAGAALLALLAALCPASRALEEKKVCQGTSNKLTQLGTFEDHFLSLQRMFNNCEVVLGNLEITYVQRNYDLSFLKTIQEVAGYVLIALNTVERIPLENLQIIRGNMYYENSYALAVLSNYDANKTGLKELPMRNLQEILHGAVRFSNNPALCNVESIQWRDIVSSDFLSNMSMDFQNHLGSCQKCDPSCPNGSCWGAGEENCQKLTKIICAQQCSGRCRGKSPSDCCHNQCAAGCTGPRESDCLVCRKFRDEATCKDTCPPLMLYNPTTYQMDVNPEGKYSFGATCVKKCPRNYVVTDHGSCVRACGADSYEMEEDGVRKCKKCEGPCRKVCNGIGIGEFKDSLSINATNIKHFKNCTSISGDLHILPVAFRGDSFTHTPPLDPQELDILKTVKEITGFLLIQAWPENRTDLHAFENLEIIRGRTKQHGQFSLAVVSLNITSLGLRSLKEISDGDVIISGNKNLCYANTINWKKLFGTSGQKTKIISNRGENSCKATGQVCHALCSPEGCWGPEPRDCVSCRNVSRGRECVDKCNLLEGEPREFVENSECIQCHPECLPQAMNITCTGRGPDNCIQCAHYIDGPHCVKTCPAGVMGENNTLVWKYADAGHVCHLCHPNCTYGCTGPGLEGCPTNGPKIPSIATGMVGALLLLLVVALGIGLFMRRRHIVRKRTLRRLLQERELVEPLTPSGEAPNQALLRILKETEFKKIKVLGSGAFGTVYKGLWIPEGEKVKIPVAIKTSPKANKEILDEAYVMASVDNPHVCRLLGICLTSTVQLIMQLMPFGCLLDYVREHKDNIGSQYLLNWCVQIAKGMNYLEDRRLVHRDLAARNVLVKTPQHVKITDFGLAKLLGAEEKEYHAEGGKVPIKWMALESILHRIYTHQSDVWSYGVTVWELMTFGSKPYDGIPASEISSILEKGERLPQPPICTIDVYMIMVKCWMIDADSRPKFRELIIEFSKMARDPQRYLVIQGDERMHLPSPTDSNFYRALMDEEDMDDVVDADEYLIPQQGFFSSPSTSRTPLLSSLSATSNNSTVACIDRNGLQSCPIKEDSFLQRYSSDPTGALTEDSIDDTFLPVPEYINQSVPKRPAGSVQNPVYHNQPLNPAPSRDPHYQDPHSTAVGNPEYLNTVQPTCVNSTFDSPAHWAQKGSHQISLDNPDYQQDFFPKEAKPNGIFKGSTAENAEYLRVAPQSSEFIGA
T6 sequence (P00533 25-1210 T790M/C797S/L858R): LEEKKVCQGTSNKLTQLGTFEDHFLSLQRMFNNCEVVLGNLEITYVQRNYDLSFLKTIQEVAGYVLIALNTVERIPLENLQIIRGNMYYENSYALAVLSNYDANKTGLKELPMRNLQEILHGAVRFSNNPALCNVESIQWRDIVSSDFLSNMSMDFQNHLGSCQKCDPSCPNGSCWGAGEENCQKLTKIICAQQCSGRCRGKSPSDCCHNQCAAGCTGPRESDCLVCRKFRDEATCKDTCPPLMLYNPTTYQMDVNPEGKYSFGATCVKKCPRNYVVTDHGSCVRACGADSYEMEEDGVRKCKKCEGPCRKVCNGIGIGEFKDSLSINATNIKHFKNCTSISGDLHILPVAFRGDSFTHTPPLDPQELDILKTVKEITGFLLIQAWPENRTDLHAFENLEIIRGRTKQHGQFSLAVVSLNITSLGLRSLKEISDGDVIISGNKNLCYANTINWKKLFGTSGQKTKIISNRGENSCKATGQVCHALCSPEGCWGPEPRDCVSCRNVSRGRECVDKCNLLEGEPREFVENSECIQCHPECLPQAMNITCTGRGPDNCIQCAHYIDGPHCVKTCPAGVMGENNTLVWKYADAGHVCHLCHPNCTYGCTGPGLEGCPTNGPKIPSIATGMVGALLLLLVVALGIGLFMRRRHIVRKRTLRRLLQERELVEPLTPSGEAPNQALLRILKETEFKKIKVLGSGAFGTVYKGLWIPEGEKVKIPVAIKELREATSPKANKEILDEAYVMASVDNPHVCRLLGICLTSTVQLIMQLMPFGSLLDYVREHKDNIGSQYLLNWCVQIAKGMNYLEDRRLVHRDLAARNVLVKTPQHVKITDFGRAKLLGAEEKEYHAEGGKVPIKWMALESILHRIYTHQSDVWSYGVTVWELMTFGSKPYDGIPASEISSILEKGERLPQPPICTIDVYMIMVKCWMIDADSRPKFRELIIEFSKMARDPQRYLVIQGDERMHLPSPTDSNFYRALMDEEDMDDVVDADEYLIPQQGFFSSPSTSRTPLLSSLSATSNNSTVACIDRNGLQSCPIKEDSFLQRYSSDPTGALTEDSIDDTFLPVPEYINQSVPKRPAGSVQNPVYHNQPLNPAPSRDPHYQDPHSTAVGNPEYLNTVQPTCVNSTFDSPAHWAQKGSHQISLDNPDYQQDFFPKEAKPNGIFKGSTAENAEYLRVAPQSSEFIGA
T2 sequence (P00533 with tags, fused parts or gaps DEL746-750/T790M/C797S, form open): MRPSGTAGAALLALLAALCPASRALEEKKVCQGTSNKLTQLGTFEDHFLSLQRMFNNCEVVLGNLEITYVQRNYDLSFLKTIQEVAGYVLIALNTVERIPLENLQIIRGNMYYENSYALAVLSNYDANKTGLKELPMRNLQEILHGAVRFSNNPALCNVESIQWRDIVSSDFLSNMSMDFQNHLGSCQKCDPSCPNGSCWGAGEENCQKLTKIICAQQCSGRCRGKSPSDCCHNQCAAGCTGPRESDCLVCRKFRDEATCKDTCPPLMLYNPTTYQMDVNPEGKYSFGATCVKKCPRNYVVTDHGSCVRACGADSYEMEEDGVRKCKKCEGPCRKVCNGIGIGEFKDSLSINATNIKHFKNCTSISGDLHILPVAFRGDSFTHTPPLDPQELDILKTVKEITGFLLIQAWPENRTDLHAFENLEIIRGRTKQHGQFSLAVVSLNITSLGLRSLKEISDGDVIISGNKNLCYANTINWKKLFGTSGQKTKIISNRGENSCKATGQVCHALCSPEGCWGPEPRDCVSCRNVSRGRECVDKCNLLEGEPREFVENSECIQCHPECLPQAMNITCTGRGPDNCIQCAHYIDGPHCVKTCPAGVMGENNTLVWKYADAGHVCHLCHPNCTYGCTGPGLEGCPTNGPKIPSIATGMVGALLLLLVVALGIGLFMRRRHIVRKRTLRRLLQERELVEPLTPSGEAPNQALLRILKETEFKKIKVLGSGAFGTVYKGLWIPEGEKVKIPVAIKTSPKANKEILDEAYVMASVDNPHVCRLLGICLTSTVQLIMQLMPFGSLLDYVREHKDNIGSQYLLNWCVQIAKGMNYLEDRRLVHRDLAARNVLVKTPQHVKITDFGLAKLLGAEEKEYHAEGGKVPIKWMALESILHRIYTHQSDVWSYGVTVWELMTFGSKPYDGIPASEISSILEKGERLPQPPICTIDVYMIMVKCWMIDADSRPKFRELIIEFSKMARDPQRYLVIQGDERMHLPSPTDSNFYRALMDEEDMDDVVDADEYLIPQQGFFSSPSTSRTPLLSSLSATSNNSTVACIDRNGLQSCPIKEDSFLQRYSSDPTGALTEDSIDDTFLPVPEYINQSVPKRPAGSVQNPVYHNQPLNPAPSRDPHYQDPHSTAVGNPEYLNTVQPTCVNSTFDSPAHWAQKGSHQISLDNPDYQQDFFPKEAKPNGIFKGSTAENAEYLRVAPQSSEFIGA

For `CCc1cc(Nc2ncc(Br)c(Nc3ccc4nccnc4c3N(C)S(=O)(=O)C(F)(F)F)n2)c(OC)nc1N1CCC(N2CCN(C)CC2)CC1` [Compound I-257], the IC50 is 500 to 2500 nM in assay [1]; at most 50 nM in assay [2]; 50 to 500 nM in assay [3]; 500 to 2500 nM in assay [4]; 50 to 500 nM in assay [5]; 50 to 500 nM in assay [6].

`C=Cc1cc(Nc2ncc(Br)c(Nc3ccc4nccnc4c3N(C)S(=O)(=O)C(F)(F)F)n2)c(OC(F)(F)F)cc1N1CCC(N2CCN(C)CC2)CC1` [Compound I-258]: the IC50 in assay [1] is 500 to 2500 nM; in assay [2], at most 50 nM; in assay [3], 50 to 500 nM; in assay [4], 500 to 2500 nM; in assay [5] it was 50 to 500 nM; in assay [6], 50 to 500 nM.

In the case of `COc1cc(N2CCC(N3CCN(C)CC3)CC2)c(CC2CC2)cc1Nc1ncc(Br)c(Nc2ccc3nccnc3c2N(C)S(=O)(=O)C(F)(F)F)n1` [Compound I-259], the IC50 in assay [1] is 500 to 2500 nM; in assay [2], 50 to 500 nM; in assay [3], 500 to 2500 nM; in assay [4], 500 to 2500 nM; in assay [5], 500 to 2500 nM; in assay [6], 50 to 500 nM.

For the molecule `CCc1cc(Nc2ncc(Br)c(Nc3ccc4nccnc4c3N(C)S(=O)(=O)C(F)(F)F)n2)c(OC)cc1N1CCN(C)CC1` [Compound I-260], the IC50 in assay [1] was 500 to 2500 nM; in assay [2], at most 50 nM; in assay [3], 50 to 500 nM; in assay [4] it was 500 to 2500 nM; in assay [5], 50 to 500 nM; in assay [6], 50 to 500 nM.

Take `COc1cc(N2CCC(N3CCN(C)CC3)CC2)ccc1Nc1ncc(Cl)c(Nc2ccc3nccnc3c2N(C)S(=O)(=O)C(F)(F)F)n1` [Compound I-261]: the IC50 in assay [1] is 500 to 2500 nM; in assay [2], 50 to 500 nM; in assay [3], 50 to 500 nM; in assay [4], 500 to 2500 nM; in assay [5], 50 to 500 nM; in assay [6], 50 to 500 nM.

Regarding `CCc1cc(Nc2ncc(Cl)c(Nc3ccc4nccnc4c3N(C)S(=O)(=O)C(F)(F)F)n2)c(OC)nc1N1CCC(N2CCN(C)CC2)CC1` [Compound I-262], the IC50 was in the range of 500 to 2500 nM in assay [1]; 50 to 500 nM in assay [2]; 50 to 500 nM in assay [3]; 500 to 2500 nM in assay [4]; 500 to 2500 nM in assay [5]; 50 to 500 nM in assay [6].

On to `C=Cc1cc(Nc2ncc(Cl)c(Nc3ccc4nccnc4c3N(C)S(=O)(=O)C(F)(F)F)n2)c(OC(F)(F)F)cc1N1CCC(N2CCN(C)CC2)CC1` [Compound I-263], for which the IC50 in assay [1] is 500 to 2500 nM; in assay [2], 50 to 500 nM; in assay [3], 50 to 500 nM; in assay [4] it was 500 to 2500 nM; in assay [5] it was 500 to 2500 nM; in assay [6], 50 to 500 nM.

For `COc1cc(N2CCC(N3CCN(C)CC3)CC2)c(CC2CC2)cc1Nc1ncc(Cl)c(Nc2ccc3nccnc3c2N(C)S(=O)(=O)C(F)(F)F)n1` [Compound I-264], the IC50 in assay [1] was in the range of 500 to 2500 nM; in assay [2] it was 50 to 500 nM; in assay [3], 500 to 2500 nM; in assay [4], 500 to 2500 nM; in assay [5], 500 to 2500 nM; in assay [6] it was 50 to 500 nM.

As to `COc1cc(N2CCC(N(C)C)CC2)c(C)cc1Nc1ncc(Cl)c(Nc2ccc3nccnc3c2N(C)S(=O)(=O)C(F)(F)F)n1` [Compound I-265], the IC50 in assay [1] lay in the range of 500 to 2500 nM; in assay [2], 50 to 500 nM; in assay [3], 500 to 2500 nM; in assay [4], 500 to 2500 nM; in assay [5] it was 500 to 2500 nM; in assay [6], 50 to 500 nM.

`COc1cc(N2CCN(C)CC2)c(C)cc1Nc1ncc(Cl)c(Nc2ccc3nccnc3c2N(C)S(=O)(=O)C(F)(F)F)n1` [Compound I-266]: the IC50 in assay [1] lay in the range of 500 to 2500 nM; in assay [2], 500 to 2500 nM; in assay [3], 500 to 2500 nM; in assay [4], 500 to 2500 nM; in assay [5], 500 to 2500 nM; in assay [6], 50 to 500 nM.

Take `CCc1cc(Nc2ncc(Cl)c(Nc3ccc4nccnc4c3N(C)S(=O)(=O)C(F)(F)F)n2)c(OC)cc1N1CCN(C)CC1` [Compound I-267]: the IC50 in assay [1], in assay [2], in assay [3], in assay [4], in assay [5] and in assay [6] was 50 to 500 nM throughout.

With `COc1cc(N2CCC(N(C)C)C2)c(C)cc1Nc1ncc(Cl)c(Nc2ccc3nccnc3c2N(C)S(=O)(=O)C(F)(F)F)n1` (stereo not drawn) [Compound I-268], the IC50 in assay [1] is 500 to 2500 nM; in assay [2] it was 50 to 500 nM; in assay [3], 500 to 2500 nM; in assay [4], 500 to 2500 nM; in assay [5] it was 500 to 2500 nM; in assay [6], 50 to 500 nM.

As to `CCc1cc(Nc2ncc(C3CC3)c(Nc3ccc4nccnc4c3N(C)S(C)(=O)=O)n2)c(OC)cc1N1CCC(N2CCN(C)CC2)CC1` [Compound I-269], the IC50 in assay [1], in assay [2], in assay [3], in assay [4], in assay [5] and in assay [6] was at most 50 nM each time.

In the case of `CCc1cc(Nc2ncc(C3CC3)c(Nc3ccc4nccnc4c3N(C)S(C)(=O)=O)n2)c(OC)nc1N1CCC(N2CCN(C)CC2)CC1` [Compound I-270], the IC50 in assay [1] is at most 50 nM; in assay [2], at most 50 nM; in assay [3], 50 to 500 nM; in assay [4], 50 to 500 nM; in assay [5], 50 to 500 nM; in assay [6], at most 50 nM.

As for `C=Cc1cc(Nc2ncc(C3CC3)c(Nc3ccc4nccnc4c3N(C)S(C)(=O)=O)n2)c(OC(F)(F)F)cc1N1CCC(N2CCN(C)CC2)CC1` [Compound I-271], the IC50 in assay [1] was 50 to 500 nM; in assay [2] it was at most 50 nM; in assay [3] it was 50 to 500 nM; in assay [4] it was 50 to 500 nM; in assay [5], 50 to 500 nM; in assay [6], at most 50 nM.

For `COc1cc(N2CCC(N(C)C)CC2)c(C)cc1Nc1ncc(C2CC2)c(Nc2ccc3nccnc3c2N(C)S(C)(=O)=O)n1` [Compound I-272], the IC50 in assay [1], in assay [2], in assay [3], in assay [4], in assay [5] and in assay [6] was at most 50 nM throughout.

For `CCc1cc(Nc2ncc(C3CC3)c(Nc3ccc4nccnc4c3N(C)S(C)(=O)=O)n2)c(OC)cc1N1CCC(N(C)C)CC1` [Compound I-273], the IC50 in assay [1], in assay [2], in assay [3], in assay [4], in assay [5] and in assay [6] was at most 50 nM each time.

Consider `COc1cc(N2CCC(N(C)C)C2)c(C)cc1Nc1ncc(C2CC2)c(Nc2ccc3nccnc3c2N(C)S(C)(=O)=O)n1` (stereo not drawn) [Compound I-274], for which the IC50 was 50 to 500 nM in assay [1]; at most 50 nM in assay [2]; 50 to 500 nM in assay [3]; 50 to 500 nM in assay [4]; 50 to 500 nM in assay [5]; 50 to 500 nM in assay [6].

With `CCc1cc(Nc2ncc(C3CC3)c(Nc3ccc4nccnc4c3N(C)S(C)(=O)=O)n2)c(OC)cc1N1CCC(N(C)C)C1` (stereo not drawn) [Compound I-275], the IC50 in assay [1] was at most 50 nM; in assay [2] it was at most 50 nM; in assay [3], at most 50 nM; in assay [4], at most 50 nM; in assay [5], 50 to 500 nM; in assay [6], at most 50 nM.

`COc1cc(N2CCC(N3CCN(C)CC3)CC2)c(C)cc1Nc1ncc(C)c(Nc2ccc3nccnc3c2N(C)S(C)(=O)=O)n1` [Compound I-276]: the IC50 in assay [1], in assay [2], in assay [3], in assay [4], in assay [5] and in assay [6] was at most 50 nM throughout.

In the case of `CCc1cc(Nc2ncc(C)c(Nc3ccc4nccnc4c3N(C)S(C)(=O)=O)n2)c(OC)cc1N1CCC(N2CCN(C)CC2)CC1` [Compound I-277], the IC50 in assay [1], in assay [2], in assay [3], in assay [4], in assay [5] and in assay [6] was at most 50 nM each time.

For the molecule `CCc1cc(Nc2ncc(C)c(Nc3ccc4nccnc4c3N(C)S(C)(=O)=O)n2)c(OC)nc1N1CCC(N2CCN(C)CC2)CC1` [Compound I-278], the IC50 in assay [1], in assay [2], in assay [3], in assay [4], in assay [5] and in assay [6] was at most 50 nM in each case.

For the origin of these results see patent US20230310428A1, “EGFR INHIBITOR AND PREPARATION METHOD AND USE THEREOF” (HONGYUN BIOTECH CO., LTD., priority 2020, published 2023).
